In article PMC11313193, “Which Constituents Determine the Antioxidant Activity and Cytotoxicity of Garlic? Role of Organosulfur Compounds and Phenolics” (International Journal of Molecular Sciences, 2024):
≈ marks a conversion by molar mass, not a printed value. Like-named read-outs stand apart in the source and are kept apart here.

Tests used:
[1] = tested on: HL-60RG human promyelocytic leukemia cells; design: method as in PMID 8593472; settings: cited from earlier work
[2] = ABTS^● decolorization assay; settings: 30 min incubation at room temperature, absorbance at 734 nm
Description: A modification of the ABTS^● decolorization assay was employed. Briefly, various volumes of solutions of the studied compounds were introduced to wells of a 96-well microplate, each prefilled 200 μL of ABTS^● solution. […] The drop in absorbance after 30 min incubation at room temperature was read as a measure of the antioxidant activity.
(§1) All assays were standardized with respect to Trolox. The antioxidant activity was calculated in each case as a ratio of the slope of the dependence of absorbance change on the concentration of a studied compound to the slope of the dependence of absorbance change of standard samples concerning Trolox on the concentration of Trolox. Antioxidant activities were expressed in moles of Trolox equivalents (TE)/mol of a studied compound, as described previously.

MRC-5 fibroblasts = experiment: Cytotoxicity (Neutral Red), MRC-5 fibroblasts; type: cell-based, human; settings: for IC50: Homo sapiens, read-out: IC50 MRC-5
Description: (§2) The PEO1 cells, SKOV-3 cells, and MRC-5 cells were grown at 37 °C and 5% CO2 in RPMI + GlutaMAX medium, McCoy’s 5A medium, and the DMEM + GlutaMAX medium, respectively. The media were supplemented with 10% heat-inactivated fetal calf serum and penicillin/streptomycin. The cell viability was evaluated using the Trypan Blue exclusion test.
(§3) In the cytotoxicity experiments, cells were grown in wells of sterile 96-well plates. The seeding density was 1 × 10^4 for SKOV-3 and MRC-5 cells and 1.5 × 10^4 for PEO1 cells. The cells were allowed to grow in the incubator for 24 h. Then, the medium was removed and new medium with an examined compound was added. The stock solutions of the compounds studied diluted with the appropriate cell medium were filtered before the addition to the cells using 0.22 µm filters. No more than 0.02% of DMSO was present in the media, and it had no discernible impact on the treated cells. Cells not exposed to any compound served as a control. After another 24 h incubation, the medium was gently aspirated, and the wells were added with 2% sterile Neutral Red solution (100 µL). The plates were then incubated (37 °C, 5% CO2) for one hour. The Neutral Red solution was aspirated, and the wells were washed two times with warm (37 °C) PBS. Subsequently, 100 µL of a permeabilization mixture (water/ethanol/glacial acetic acid, 50/49/1, v/v/v) was introduced to each well. The plates were shaken at 700 rpm for 20 min and absorbance was read at a wavelength of 540 nm against 620 nm.

[3] = tested on: SKOV-3 ovarian cancer cells; experiment: Cytotoxicity (Neutral Red), SKOV-3 cells; type: cell-based, human; settings: for Concentration at which viability of SKOV-3 cells was lowered: p < 0.05; for IC50: Homo sapiens, read-out: IC50 SKOV-3
Description: as §2, §3

[4] = tested on: P388-D1 mouse lymphoid cancer cells; design: method as in PMID 8593472; settings: cited from earlier work
[5] = tested on: HTB-35 cervical cancer cells; design: method as in PMID 24843386; settings: range given for HeLa and HTB-35, converted; cited from earlier work
[6] = tested on: PLC/PRF/5 human hepatoma cells; design: method as in PMID 8593472; settings: cited from earlier work
[7] = tested on: dRLh-84 rat hepatoma cells; design: method as in PMID 8593472; settings: cited from earlier work
[8] = tested on: PC-3 prostate cancer cells; design: method as in PMID 19589639; settings: 48 h exposure, cited from earlier work
[9] = tested on: DUI45 prostate cancer cells; design: method as in PMID 19589639; settings: 48 h exposure, cited from earlier work
[10] = tested on: LNCaP prostate cancer cells; design: method as in PMID 19589639; settings: 48 h exposure, cited from earlier work
[11] = Ferric reducing antioxidant power (FRAP) assay; settings: 30 min at ambient temperature, pH 3.6, absorbance at 593 nm
Description: The method proposed by Benzie and Strain [91] was employed with a slight modification. Briefly, increasing volumes of solutions of the studied compounds were added to wells of a 96-well microplate prefilled with 200 μL of the working solution composed of 0.3 M acetate buffer, pH 3.6 (10 volumes), 10 mM 2,4,6-tris(2-pyridyl)-s-triazine (TPTZ), in 40 mM HCl (1 volume) and 20 mM FeCl3 (1 volume), was prepared immediately before use. After 30 min incubation at ambient temperature and the absorbance of the Fe^2+-TPTZ complex was read at 593 nm.
as §1

[12] = tested on: PEO1 ovarian cancer cells; experiment: Cytotoxicity (Neutral Red), PEO1 cells; type: cell-based, human; settings: for Concentration at which viability of PEO1 cells was lowered: p < 0.05; for IC50: Homo sapiens, read-out: IC50 PEO1
Description: as §2, §3

[13] = tested on: HeLa human epithelial carcinoma cells; design: method as in PMID 8593472; settings: cited from earlier work
[14] = tested on: KB human epidermoid carcinoma cells; design: method as in PMID 8593472; settings: cited from earlier work
[15] = DPPH^● decolorization assay; settings: 30 min at ambient temperature in the dark, absorbance at 517 nm
Description: The assay was performed as described in a previous article. Briefly, increasing volumes of solutions of the studied compounds were introduced to wells of a 96-well microplate, each with 200 μL of 0.3 mM DPPH^● solution in methanol. The reaction was allowed to proceed for 30 min at ambient temperature in the dark, and absorbance at 517 nm was read. The absorbance decrease was a measure of the antioxidant activity.
as §1

[16] = tested on: HeLa cervical cancer cells; design: method as in PMID 24843386; settings: range given for HeLa and HTB-35, converted; cited from earlier work
MCF-7 cells = tested on: MCF-7 cells; design: method as in PMID 24223637; settings: 40 μg/mL (132 μM); cited from earlier work
[17] = tested on: HGC-27 gastric cancer cell line; design: method as in PMID 2298289; settings: range given for four gastric cancer cell lines; read-out: IC50 HGC-27 gastric cancer cells; cited from earlier work
[18] = tested on: MKN-28 gastric cancer cell line; design: method as in PMID 2298289; settings: range given for four gastric cancer cell lines; read-out: IC50 MKN-28 gastric cancer cells; cited from earlier work
[19] = tested on: A549 human adenocarcinomic alveolar basal epithelial cells; design: method as in PMID 14688022; settings: cited from earlier work
[20] = tested on: MKN-7 gastric cancer cell line; design: method as in PMID 2298289; settings: range given for four gastric cancer cell lines; read-out: IC50 MKN-7 gastric cancer cells; cited from earlier work
[21] = tested on: NUGC-2 gastric cancer cell line; design: method as in PMID 2298289; settings: range given for four gastric cancer cell lines; read-out: IC50 NUGC-2 gastric cancer cells; cited from earlier work
[22] = tested on: breast cancer HCC1937 cells; design: method as in PMID 16619521; settings: 100 μM; cited from earlier work
[23] = tested on: colorectal cancer SW-620 cells; design: method as in PMID 25829782; settings: cited from earlier work
[24] = tested on: colorectal cancer CACO-2 cells; design: method as in PMID 25829782; settings: cited from earlier work
SKOV-3 cells = tested on: SKOV-3 cells; design: method as in PMID 16675472; settings: cited from earlier work
SKOV-3 xenograft tumors = tested on: SKOV-3 xenograft tumors; design: method as in PMID 16675472; settings: administered intragastrically; cited from earlier work
HO8910 xenograft tumors = tested on: HO8910 xenograft tumors; design: method as in PMID 16675472; settings: administered intragastrically; cited from earlier work

## O=C(O)c1cc(O)c(O)c(O)c1 [Gallic acid, gallic acid]
[1]
  IC50 HL-60RG cells: 5.4 µg/mL (≈ 31.7 µM)
[1]; converted from μg/mL
  IC50: 30 µM
[2]
  Antioxidant activity, ABTS^● Decolorization: 0.972 ± 0.028 mol Trolox equivalents (TE)/mol compound
MRC-5 fibroblasts; 24 h exposure, p < 0.05
  Concentration at which viability of MRC-5 cells was lowered: 200 to 1000 µM
MRC-5 fibroblasts; MRC5, 24 h exposure, Neutral Red
  IC50: 243 µM
[3]; 24 h exposure
  Concentration at which viability of SKOV-3 cells was lowered: 200 to 1000 µM
[3]; SK-OV-3, 24 h exposure, Neutral Red
  IC50: 115 µM
[4]
  IC50 P388-D1 cells: 4.8 µg/mL (≈ 28.2 µM)
[4]; converted from μg/mL
  IC50: 27 µM
[5]
  IC50: 111 to 139 µM
[6]
  IC50 PLC/PRF/5 cells: 6.6 µg/mL (≈ 38.8 µM)
[6]; converted from μg/mL
  IC50: 37 µM
[7]
  IC50 dRLh-84 cells: 6.2 µg/mL (≈ 36.4 µM)
[7]; converted from μg/mL
  IC50: 34 µM
[8]; converted
  IC50: 89 µM
[8]
  IC50 PC-3 prostate cancer cells: 16 µg/mL (≈ 94.1 µM)
[9]; converted
  IC50: 89 µM
[9]
  IC50 DUI45 prostate cancer cells: 16 µg/mL (≈ 94.1 µM)
[10]; converted
  IC50: 117 µM
[10]
  IC50 LNCaP prostate cancer cells: 21 µg/mL (≈ 123 µM)
[11]
  Antioxidant activity, FRAP: 0.332 ± 0.001 mol Trolox equivalents (TE)/mol compound
[12]; 24 h exposure
  Concentration at which viability of PEO1 cells was lowered: 200 to 1000 µM
[12]; PEO1, 24 h exposure, Neutral Red
  IC50: 19 µM
[13]
  IC50 HeLa cells: 6.1 µg/mL (≈ 35.9 µM)
[13]; converted from μg/mL
  IC50: 34 µM
[14]
  IC50 KB cells: 13.2 µg/mL (≈ 77.6 µM)
[14]; converted from μg/mL
  IC50: 73 µM
[15]
  Antioxidant activity, DPPH^● Decolorization: 0.178 ± 0.023 mol Trolox equivalents (TE)/mol compound
[16]
  IC50: 111 to 139 µM

## O=c1c(O)c(-c2ccc(O)c(O)c2)oc2cc(O)cc(O)c12 [Quercetin]
[2]
  Antioxidant activity, ABTS^● Decolorization: 1.138 ± 0.029 mol Trolox equivalents (TE)/mol compound
MCF-7 cells
  Viability of MCF-7 cells (diminished to): ca. 70%
MRC-5 fibroblasts; 24 h exposure
  Concentration range with no significant decrease in viability of MRC-5 cells: up to 200 µM
MRC-5 fibroblasts; MRC5, 24 h
  IC50: 111 µM
[3]; 24 h exposure
  Concentration at which viability of SKOV-3 cells was lowered: 75 to 200 µM
[3]; SK-OV-3, 24 h
  IC50: 272 µM
[17]
  IC50: 32 to 55 µM
[18]
  IC50: 32 to 55 µM
[19]
  IC50: ~40 µM
[20]
  IC50: 32 to 55 µM
[11]
  Antioxidant activity, FRAP: 1.350 ± 0.201 mol Trolox equivalents (TE)/mol compound
[12]; 24 h exposure
  Concentration at which viability of PEO1 cells was lowered: 75 to 200 µM
[12]; PEO1, 24 h
  IC50: 100 µM
[21]
  IC50: 32 to 55 µM
[22]
  Viability of HCC1937 cells (diminished to): ca. 40%
[23]
  IC50: 20 µM
[24]
  IC50: 35 µM
[15]
  Antioxidant activity, DPPH^● Decolorization: 0.384 ± 0.040 mol Trolox equivalents (TE)/mol compound

## C=CCSSC[C@H](N)C(=O)O [SAMC, S-allylmercaptocysteine]
SKOV-3 cells
  Migration of SKOV-3 cells and their invasiveness: inhibited
SKOV-3 xenograft tumors
  Development of xenograft tumors formed by SKOV-3 cells: inhibited
HO8910 xenograft tumors
  Development of xenograft tumors formed by HO8910 cells: inhibited
